Literature values, collected in paper PMC12839115, “2-Arylbenzofurans as Selective Cholinesterase Inhibitors: Design, Synthesis, and Evaluation as Alzheimer’s Disease Agents” (Biomolecules, 2026).

Target: T1, BChE (EC 3.1.1.8) from equine serum (Equus caballus, UniProt P81908)
T1 construct: BChE (EC 3.1.1.8) from equine serum were employed; from tissue; host or cells: equine serum
T1 sequence (P81908 whole entry): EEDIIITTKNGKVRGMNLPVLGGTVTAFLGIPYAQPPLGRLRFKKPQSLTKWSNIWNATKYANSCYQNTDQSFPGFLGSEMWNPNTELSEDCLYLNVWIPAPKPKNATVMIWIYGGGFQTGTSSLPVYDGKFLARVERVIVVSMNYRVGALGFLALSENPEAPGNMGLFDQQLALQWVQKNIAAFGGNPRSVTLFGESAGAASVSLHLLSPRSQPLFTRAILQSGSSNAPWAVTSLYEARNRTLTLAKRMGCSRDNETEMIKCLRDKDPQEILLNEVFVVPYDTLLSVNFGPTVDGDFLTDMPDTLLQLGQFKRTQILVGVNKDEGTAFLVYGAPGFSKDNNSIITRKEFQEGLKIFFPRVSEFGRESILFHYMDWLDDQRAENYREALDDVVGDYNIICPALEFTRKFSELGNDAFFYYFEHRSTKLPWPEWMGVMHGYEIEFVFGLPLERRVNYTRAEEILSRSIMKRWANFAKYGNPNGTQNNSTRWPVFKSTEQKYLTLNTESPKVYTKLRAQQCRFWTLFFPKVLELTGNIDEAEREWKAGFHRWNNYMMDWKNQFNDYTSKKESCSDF

Oc1cccc(-c2cc3cccc(Cl)c3o2)c1 [C00004]
IC50: 13.4 ± 2.57 µM

Oc1cccc(-c2cc3cccc(Br)c3o2)c1 [C00010]
IC50: 7.96 ± 0.28 µM
